# Experimental data: patent US8637467B2, “Pharmaceutical being used for treating cancer and fibrosis disease and the composition and uses thereof” (Wuxi MTLH Biotechnology Co., Ltd., priority 2008, dated 2014)
# Where no end group is shown, it is not given here.
# Experiments:
# [1] = test system: human liver cancer cell BEL-7402; experiment: Cancer cell attachment to base membrane; format: cell-based; settings: incubated with cancer cells for 12 hours, FIG. 6
# [2] = test system: Rat CC14 liver damage model; experiment: Rat CC14 liver damage model (chronic liver fibrosis); format: in vivo, SD rat; parameters: Liver parameters: unit not given here
# Description: To evaluate the protective effect of peptide SEQ ID NO:1 on liver damage, we used chronic liver fibrosis model (rat CC14 model) for efficacy evaluation.
# Rat CC14 liver damage model
# (1) Control group: saline, sc, 2 ml/kg, 10 rats
# (2) model group: 40% CC14, sc, 2 ml/kg, 17 rats
# (3) Gan-li-xin group: 25 mg/kg, iv, 10 ml/kg, 15 rats
# (4) Prevention, high dose group: 50 μg peptide SEQ ID NO:1/kg, iv, 10 ml/kg, 17 rats
# (5) Prevention, low dose group: 10 μg peptide SEQ ID NO:1/kg, iv, 10 ml/kg, 17 rats
# (6) Treatment, high dose group: 100 μg peptide SEQ ID NO:1/kg, iv, 10 ml/kg, 17 rats
# (7) Treatment, high dose group: 20 μg peptide SEQ ID NO:1/kg, iv, 10 ml/kg, 17 rats
# Except for control group, inject 40% CC14 subcutaneously twice (Tuesday, and Friday) every week in Group (2) to (6), drug volume (0.2 ml/100 g, the first time 0.5 ml/100 g). CC14 Model construction is 6 weeks. Parallel to the model construction, inject intravenously peptide SEQ ID NO:1 at 50 μg/kg and 10 μg/kg in group (4) and (5), respectively, once a day for 6 weeks. For Group (3), (6), and (7), starting from week 5, inject Gan-li-xin 25 mg/kg, peptide SEQ ID NO:1 at 100 μg/kg and 20 μg/kg, respectively, once a day, continuously for 2 weeks.
# All rats were weighed once a week during model construction and drug injection. According to weight, the dose of drugs is adjusted. 24 hours after the last time of CC14 injection, liver weight parameters were examined.
# Blood was extracted from femoral artery and serum was separated. The following parameters were examined: serum alanine aminotransferase (ALT), aspartate aminotransferase (AST), Bilirubin (TB), Alkaline phosphatase (ALP), total protein (TP), albumin (ALB), globulin (G), albumin/globulin ratio (A/G), glucose (GLU), total cholesterol (TCH), triglyceride (TG).
# Liver homogenate: to examine cholesterol (TCH), triglyceride (TG), alanine aminotransferase (ALT), and aspartate aminotransferase (AST).
# […], dry at 110 C, examine Hydroxyproline (HPA).
# Part of the liver is fixed in formalin for histology examination.
# [3] = test system: phosphorylation of Erk1/2; experiment: Western blot, PDGFR intracellular Ras-Raf signaling pathway in HUVEC; format: cell-based, Human; settings: 6 hours, 10 ug/ml (2 uM)
# Description: Various concentration of Peptide SEQ ID No:1 was incubated with Human Umbilical Vein Endothelial Cells (HUVEC) cells for 6 hours. Protein was extracted from these cells and western blot was performed. Antibody for p-stat1: Antibody against phophorylated-Tyr701; Antibody for p-MEK1/2: Antibody against phophorylated-Ser217/221 peptide; Antibody for p-Erk1/2: Antibody against phophorylated-Ser202/204. beta-Actin was a control to make sure all lanes are loaded with same amount of protein.
# [4] = Prevention, High dose 50 μg/kg iv, once a day for 6 weeks
# [5] = Prevention, low dose 10 μg/kg iv, once a day for 6 weeks
# [6] = Treatment, High dose 100 μg/kg iv, once a day for 2 weeks from week 5
# [7] = Treatment, low dose 20 μg/kg iv, once a day for 2 weeks from week 5
substance,measurement,setting,value
SKVTKKYHEVLQLRPKTGVRGLHKSLTDVALEHHEECDCVCRGSTGG-OH (cysteines drawn unpaired) [Peptide SEQ ID NO:1],cancer cell attachment to base membrane,[1],inhibited cancer cell attachment to base membrane
same,"ALB (albumin), serum",[2]; [4],20.8 ± 2.0 g/L
same,"ALP (alkaline phosphatase), serum",[2]; [4],266.3 ± 85.7 IU/L
same,"ALT (alanine aminotransferase), serum",[2]; [4],75 ± 29.4 IU/L
same,"AST (aspartate aminotransferase), serum",[2]; [4],236.8 ± 27.2 IU/L
same,"Bilirubin, serum",[2]; [4],3.3 ± 0.1 µmol/L
same,"GLU (glucose), serum",[2]; [4],6.5 ± 0.9 mmol/L
same,Liver parameters,[2]; [4],4.3 ± 0.4
same,Liver weight,[2]; [4],12.1 ± 2.5 g
same,"TCH (total cholesterol), serum",[2]; [4],1.9 ± 0.3 mmol/L
same,"TG (triglyceride), serum",[2]; [4],0.6 ± 0.1 mmol/L
same,"TP (total protein), serum",[2]; [4],68.3 ± 4.1 g/L
same,hydroxyproline amount in rat liver,[2]; [4],0.216 ± 0.062 ug/mg wet weight
same,"ALB (albumin), serum",[2]; [5],18.8 ± 2.4 g/L
same,"ALP (alkaline phosphatase), serum",[2]; [5],304.3 ± 90.4 IU/L
same,"ALT (alanine aminotransferase), serum",[2]; [5],80.6 ± 21.3 IU/L
same,"AST (aspartate aminotransferase), serum",[2]; [5],248.8 ± 38.3 IU/L
same,"Bilirubin, serum",[2]; [5],3.3 ± 0.5 µmol/L
same,"GLU (glucose), serum",[2]; [5],6.2 ± 0.7 mmol/L
same,Liver parameters,[2]; [5],4.1 ± 0.4
same,Liver weight,[2]; [5],11.3 ± 2.5 g
same,"TCH (total cholesterol), serum",[2]; [5],1.6 ± 0.3 mmol/L
same,"TG (triglyceride), serum",[2]; [5],0.6 ± 0.2 mmol/L
same,"TP (total protein), serum",[2]; [5],66.4 ± 4.6 g/L
same,hydroxyproline amount in rat liver,[2]; [5],0.192 ± 0.045 ug/mg wet weight
same,"ALB (albumin), serum",[2]; [6],19.7 ± 3.7 g/L
same,"ALP (alkaline phosphatase), serum",[2]; [6],216.5 ± 91.0 IU/L
same,"ALT (alanine aminotransferase), serum",[2]; [6],69.8 ± 31.3 IU/L
same,"AST (aspartate aminotransferase), serum",[2]; [6],219.6 ± 56.7 IU/L
same,"Bilirubin, serum",[2]; [6],2.9 ± 0.4 µmol/L
same,"GLU (glucose), serum",[2]; [6],6.3 ± 1.0 mmol/L
same,Liver parameters,[2]; [6],4.0 ± 0.5
same,Liver weight,[2]; [6],10.1 ± 3.2 g
same,"TCH (total cholesterol), serum",[2]; [6],2.1 ± 0.8 mmol/L
same,"TG (triglyceride), serum",[2]; [6],0.5 ± 0.2 mmol/L
same,"TP (total protein), serum",[2]; [6],70.4 ± 4.4 g/L
same,hydroxyproline amount in rat liver,[2]; [6],0.165 ± 0.038 ug/mg wet weight
same,"ALB (albumin), serum",[2]; [7],18.8 ± 2.5 g/L
same,"ALP (alkaline phosphatase), serum",[2]; [7],357.1 ± 120.7 IU/L
same,"ALT (alanine aminotransferase), serum",[2]; [7],90.9 ± 37.3 IU/L
same,"AST (aspartate aminotransferase), serum",[2]; [7],260.0 ± 73.1 IU/L
same,"Bilirubin, serum",[2]; [7],3.3 ± 0.8 µmol/L
same,"GLU (glucose), serum",[2]; [7],6.1 ± 0.9 mmol/L
same,Liver parameters,[2]; [7],4.4 ± 0.8
same,Liver weight,[2]; [7],12.9 ± 4.7 g
same,"TCH (total cholesterol), serum",[2]; [7],1.6 ± 0.5 mmol/L
same,"TG (triglyceride), serum",[2]; [7],0.5 ± 0.2 mmol/L
same,"TP (total protein), serum",[2]; [7],69.1 ± 6.1 g/L
same,hydroxyproline amount in rat liver,[2]; [7],0.222 ± 0.048 ug/mg wet weight
same,steatosis and fat cavities in liver cells (histology),"[2]; prevention high dose group, 3 cases",50-60%
same,steatosis and fat cavities in liver cells (histology),"[2]; prevention high dose group, 5 cases",60-80%
same,steatosis and fat cavities in liver cells (histology),"[2]; prevention low dose group, all cases",60-80%
same,liver damage caused by CC14 in rat (summary),"[2]; serum biochemical parameters, liver hydroxyproline amount, liver pathological features",can improve liver damage caused by CC14 in rat
same,steatosis and fat cavities in liver cells (histology),"[2]; treatment high dose group, 2 cases",Over 80%
same,steatosis and fat cavities in liver cells (histology),"[2]; treatment high dose group, 2 cases with less steatosis",50-60%
same,steatosis and fat cavities in liver cells (histology),"[2]; treatment high dose group, 4 cases with even less steatosis",< 30%
same,phosphorylation of Erk1/2 (western blot),[3],significantly inhibits phosphorylation of Erk1/2
